Columns and labels:
Type in all cases: in vivo
rapeseed = experiment: Test Example 5: effect on crop by foliage application, plastic box (symbol g); conditions: 320 g/ha, 3 weeks after application
Outline: (§1)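 Greenhouse test at 25° C. to 30° C. Seeds of crops and weeds were spot-sown in boxes of sterilized diluvial soil under roughly 1.5 cm soil cover, then grown for foliage treatment.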

Stellaria media = experiment: Test Example 4: herbicidal effect by soil treatment (symbol P); conditions: application herbicide amount 320 g/ha
Outline: (§2)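 Seeds were sown in sterilized diluvial soil, covered with about 1.5 cm of soil, and the soil surface was sprayed with a water-diluted emulsion of the compound at a predetermined rate. Plants grew in a greenhouse at 25° C. to 30° C.; effects were scored visually 3 weeks after application.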

Apera spica-venti [1] = experiment: Test Example 5: herbicidal effect by foliage application, plastic box (symbol L); conditions: 320 g/ha, 3 weeks after application
Outline: (§3)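 Sowing in sterilized diluvial soil, 14 days' greenhouse growth at 25° C. to 30° C., then uniform small-sprayer foliar application of aqueous emulsion dilution; plants scored three weeks afterwards.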

[2] = system: directly sowed rice plant; experiment: Test Example 3: effect on crop by foliage application, Wagner pot (symbol b); conditions: application herbicide amount 320 g/ha, Table 24
Outline: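 Steps: fill a 1/10000-are Wagner pot with alluvial soil; add water and mix to submerge at 0.1–0.5 cm depth; sow rice plus Echinochloa crus-galli var. crus-galli, Leptochloa chinensis and Cyperus difformis; grow in a 25–30 °C greenhouse.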

Setaria viridis = experiment: Test Example 4: herbicidal effect by soil treatment (symbol G); conditions: application herbicide amount 320 g/ha
Outline: as §2

[3] = system: Echinochloa oryzacola Vasing.; experiment: Test Example 1: herbicidal activity, application before weed generation in submerged conditions (symbol A); conditions: application herbicide amount 320 g/ha
Outline: (§4)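 Flooded alluvial soil (4 cm water) was mixed-sown with the three weed species, and 2.5-leaf rice seedlings were transplanted. On sowing day, a water-diluted emulsion at a predetermined rate was applied to the water surface. After 3 weeks in a 25–30 °C greenhouse, effect was scored 0–5.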

Lolium multiflorum Lam. = experiment: Test Example 5: herbicidal effect by foliage application, plastic box (symbol K); conditions: 320 g/ha, 3 weeks after application
Outline: as §3

Veronica persica = experiment: Test Example 4: herbicidal effect by soil treatment (symbol R); conditions: application herbicide amount 320 g/ha
Outline: as §2

transplanted rice plant = experiment: Test Example 1: effect on crop, application before weed generation in submerged conditions (symbol a); conditions: application herbicide amount 320 g/ha
Outline: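 Alluvial soil pots flooded to 4 cm water, sown with Echinochloa oryzacola, Scirpus juncoides and Monochoria vaginalis, then transplanted with 2.5 leaf stage rice seedlings; pre-emergence application. Greenhouse 25° C. to 30° C.; scored 0–5 by herbicidal ratio 3 weeks after application.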

Avena fatua = experiment: Test Example 5: herbicidal effect by foliage application, plastic box (symbol I); conditions: 320 g/ha, 3 weeks after application
Outline: as §3

Apera spica-venti [4] = experiment: Test Example 4: herbicidal effect by soil treatment (symbol L); conditions: application herbicide amount 320 g/ha
Outline: as §2

wheat = experiment: Test Example 5: effect on crop by foliage application, plastic box (symbol e); conditions: 320 g/ha, 3 weeks after application
Outline: as §1

Galium spurium [5] = experiment: Test Example 4: herbicidal effect by soil treatment (symbol Q); conditions: application herbicide amount 320 g/ha
Outline: as §2

Scirpus juncoides = experiment: Test Example 1: herbicidal activity, application before weed generation in submerged conditions (symbol B); conditions: application herbicide amount 320 g/ha
Outline: as §4

Monochoria vaginalis = experiment: Test Example 1: herbicidal activity, application before weed generation in submerged conditions (symbol C); conditions: application herbicide amount 320 g/ha
Outline: as §4

Digitaria ciliaris = experiment: Test Example 5: herbicidal effect by foliage application, plastic box (symbol F); conditions: 320 g/ha, 3 weeks after application
Outline: as §3

Galium spurium [6] = experiment: Test Example 5: herbicidal effect by foliage application, plastic box (symbol Q); conditions: 320 g/ha, 3 weeks after application
Outline: as §3

Abutilon theophrasti = experiment: Test Example 4: herbicidal effect by soil treatment (symbol M); conditions: application herbicide amount 320 g/ha
Outline: as §2

## CC(CC1CC(OC(=O)COc2ccccc2)=C(c2c(C)cc(-c3ccc(Cl)cc3)cc2C)C1=O)=NOCC(F)(F)F (mixture of isomers) [9-027]
rapeseed
  g: rapeseed, effect on crop grade: 4 (Herbicidal ratio of 70% or higher and lower than 90%)
Stellaria media
  Herbicidal effect grade, P: Stellaria media: 3 (Herbicidal ratio of 40% or higher and lower than 70%)
Apera spica-venti [1]
  L: Apera spica-venti, herbicidal effect grade: 5 (Herbicidal ratio of 90% or more (almost completely withered))
[2]
  b (directly sowed rice plant) effect on crop grade: 3 (Herbicidal ratio of 40% or higher and lower than 70%)
Setaria viridis
  Herbicidal effect grade, G: Setaria viridis: 5 (Herbicidal ratio of 90% or more (almost completely withered))
[3]
  A (Echinochloa oryzacola Vasing.) herbicidal effect grade: 5 (Herbicidal ratio of 90% or more (almost completely withered))
Lolium multiflorum Lam.
  K: Lolium multiflorum Lam., herbicidal effect grade: 5 (Herbicidal ratio of 90% or more (almost completely withered))
Veronica persica
  Herbicidal effect grade, R: Veronica persica: 3 (Herbicidal ratio of 40% or higher and lower than 70%)
Transplanted rice plant
  a (transplanted rice plant) effect on crop grade: 5 (Herbicidal ratio of 90% or more (almost completely withered))
Avena fatua
  I: Avena fatua, herbicidal effect grade: 5 (Herbicidal ratio of 90% or more (almost completely withered))
Apera spica-venti [4]
  Herbicidal effect grade, L: Apera spica-venti: 5 (Herbicidal ratio of 90% or more (almost completely withered))
wheat
  e: wheat, effect on crop grade: 4 (Herbicidal ratio of 70% or higher and lower than 90%)
Galium spurium [5]
  Herbicidal effect grade, Q: Galium spurium: 0 (Herbicidal ratio of 5% or lower (almost no effect))
Scirpus juncoides
  B (Scirpus juncoides) herbicidal effect grade: 2 (Herbicidal ratio of 20% or higher and lower than 40%)
Monochoria vaginalis
  C (Monochoria vaginalis) herbicidal effect grade: 1 (Herbicidal ratio of 5% or higher and lower than 20%)
Digitaria ciliaris
  F: Digitaria ciliaris, herbicidal effect grade: 5 (Herbicidal ratio of 90% or more (almost completely withered))
Galium spurium [6]
  Q: Galium spurium, herbicidal effect grade: 3 (Herbicidal ratio of 40% or higher and lower than 70%)
Abutilon theophrasti
  Herbicidal effect grade, M: Abutilon theophrasti: 0 (Herbicidal ratio of 5% or lower (almost no effect))

## CON=C(CC1CC(O)=C(c2c(C)cc(-c3ccccc3)cc2C)C1=O)C1CC1 (mixture of isomers) [9-028]
rapeseed
  g: rapeseed, effect on crop grade: 4 (Herbicidal ratio of 70% or higher and lower than 90%)
Stellaria media
  Herbicidal effect grade, P: Stellaria media: 0 (Herbicidal ratio of 5% or lower (almost no effect))
Apera spica-venti [1]
  L: Apera spica-venti, herbicidal effect grade: 5 (Herbicidal ratio of 90% or more (almost completely withered))
[2]
  b (directly sowed rice plant) effect on crop grade: 5 (Herbicidal ratio of 90% or more (almost completely withered))
Setaria viridis
  Herbicidal effect grade, G: Setaria viridis: 5 (Herbicidal ratio of 90% or more (almost completely withered))
[3]
  A (Echinochloa oryzacola Vasing.) herbicidal effect grade: 5 (Herbicidal ratio of 90% or more (almost completely withered))
Lolium multiflorum Lam.
  K: Lolium multiflorum Lam., herbicidal effect grade: 5 (Herbicidal ratio of 90% or more (almost completely withered))
Veronica persica
  Herbicidal effect grade, R: Veronica persica: 0 (Herbicidal ratio of 5% or lower (almost no effect))
Transplanted rice plant
  a (transplanted rice plant) effect on crop grade: 5 (Herbicidal ratio of 90% or more (almost completely withered))
Avena fatua
  I: Avena fatua, herbicidal effect grade: 4 (Herbicidal ratio of 70% or higher and lower than 90%)
Apera spica-venti [4]
  Herbicidal effect grade, L: Apera spica-venti: 5 (Herbicidal ratio of 90% or more (almost completely withered))
wheat
  e: wheat, effect on crop grade: 4 (Herbicidal ratio of 70% or higher and lower than 90%)
Galium spurium [5]
  Herbicidal effect grade, Q: Galium spurium: 0 (Herbicidal ratio of 5% or lower (almost no effect))
Scirpus juncoides
  B (Scirpus juncoides) herbicidal effect grade: 5 (Herbicidal ratio of 90% or more (almost completely withered))
Monochoria vaginalis
  C (Monochoria vaginalis) herbicidal effect grade: 5 (Herbicidal ratio of 90% or more (almost completely withered))
Digitaria ciliaris
  F: Digitaria ciliaris, herbicidal effect grade: 5 (Herbicidal ratio of 90% or more (almost completely withered))
Galium spurium [6]
  Q: Galium spurium, herbicidal effect grade: 4 (Herbicidal ratio of 70% or higher and lower than 90%)
Abutilon theophrasti
  Herbicidal effect grade, M: Abutilon theophrasti: 0 (Herbicidal ratio of 5% or lower (almost no effect))

## CON=C(C)CC1(C)CC(O)=C(c2c(C)cc(C)cc2C)C1=O (mixture of isomers) [11-002]
rapeseed
  g: rapeseed, effect on crop grade: 4 (Herbicidal ratio of 70% or higher and lower than 90%)
Stellaria media
  Herbicidal effect grade, P: Stellaria media: 0 (Herbicidal ratio of 5% or lower (almost no effect))
Apera spica-venti [1]
  L: Apera spica-venti, herbicidal effect grade: 5 (Herbicidal ratio of 90% or more (almost completely withered))
[2]
  b (directly sowed rice plant) effect on crop grade: 5 (Herbicidal ratio of 90% or more (almost completely withered))
Setaria viridis
  Herbicidal effect grade, G: Setaria viridis: 1 (Herbicidal ratio of 5% or higher and lower than 20%)
[3]
  A (Echinochloa oryzacola Vasing.) herbicidal effect grade: 2 (Herbicidal ratio of 20% or higher and lower than 40%)
Lolium multiflorum Lam.
  K: Lolium multiflorum Lam., herbicidal effect grade: 5 (Herbicidal ratio of 90% or more (almost completely withered))
Veronica persica
  Herbicidal effect grade, R: Veronica persica: 0 (Herbicidal ratio of 5% or lower (almost no effect))
Transplanted rice plant
  a (transplanted rice plant) effect on crop grade: 2 (Herbicidal ratio of 20% or higher and lower than 40%)
Avena fatua
  I: Avena fatua, herbicidal effect grade: 5 (Herbicidal ratio of 90% or more (almost completely withered))
Apera spica-venti [4]
  Herbicidal effect grade, L: Apera spica-venti: 4 (Herbicidal ratio of 70% or higher and lower than 90%)
wheat
  e: wheat, effect on crop grade: 2 (Herbicidal ratio of 20% or higher and lower than 40%)
Galium spurium [5]
  Herbicidal effect grade, Q: Galium spurium: 0 (Herbicidal ratio of 5% or lower (almost no effect))
Scirpus juncoides
  B (Scirpus juncoides) herbicidal effect grade: 0 (Herbicidal ratio of 5% or lower (almost no effect))
Monochoria vaginalis
  C (Monochoria vaginalis) herbicidal effect grade: 0 (Herbicidal ratio of 5% or lower (almost no effect))
Digitaria ciliaris
  F: Digitaria ciliaris, herbicidal effect grade: 4 (Herbicidal ratio of 70% or higher and lower than 90%)
Galium spurium [6]
  Q: Galium spurium, herbicidal effect grade: 0 (Herbicidal ratio of 5% or lower (almost no effect))
Abutilon theophrasti
  Herbicidal effect grade, M: Abutilon theophrasti: 0 (Herbicidal ratio of 5% or lower (almost no effect))

## CON=C(C)CC1C(O)=C(c2c(C)cc(C)cc2C)C(=O)C1C (mixture of isomers) [12-002]
rapeseed
  g: rapeseed, effect on crop grade: 5 (Herbicidal ratio of 90% or more (almost completely withered))
Stellaria media
  Herbicidal effect grade, P: Stellaria media: 0 (Herbicidal ratio of 5% or lower (almost no effect))
Apera spica-venti [1]
  L: Apera spica-venti, herbicidal effect grade: 5 (Herbicidal ratio of 90% or more (almost completely withered))
[2]
  b (directly sowed rice plant) effect on crop grade: 5 (Herbicidal ratio of 90% or more (almost completely withered))
Setaria viridis
  Herbicidal effect grade, G: Setaria viridis: 5 (Herbicidal ratio of 90% or more (almost completely withered))
[3]
  A (Echinochloa oryzacola Vasing.) herbicidal effect grade: 5 (Herbicidal ratio of 90% or more (almost completely withered))
Lolium multiflorum Lam.
  K: Lolium multiflorum Lam., herbicidal effect grade: 5 (Herbicidal ratio of 90% or more (almost completely withered))
Veronica persica
  Herbicidal effect grade, R: Veronica persica: 0 (Herbicidal ratio of 5% or lower (almost no effect))
Transplanted rice plant
  a (transplanted rice plant) effect on crop grade: 3 (Herbicidal ratio of 40% or higher and lower than 70%)
Avena fatua
  I: Avena fatua, herbicidal effect grade: 5 (Herbicidal ratio of 90% or more (almost completely withered))
Apera spica-venti [4]
  Herbicidal effect grade, L: Apera spica-venti: 3 (Herbicidal ratio of 40% or higher and lower than 70%)
wheat
  e: wheat, effect on crop grade: 2 (Herbicidal ratio of 20% or higher and lower than 40%)
Galium spurium [5]
  Herbicidal effect grade, Q: Galium spurium: 0 (Herbicidal ratio of 5% or lower (almost no effect))
Scirpus juncoides
  B (Scirpus juncoides) herbicidal effect grade: 3 (Herbicidal ratio of 40% or higher and lower than 70%)
Monochoria vaginalis
  C (Monochoria vaginalis) herbicidal effect grade: 2 (Herbicidal ratio of 20% or higher and lower than 40%)
Digitaria ciliaris
  F: Digitaria ciliaris, herbicidal effect grade: 5 (Herbicidal ratio of 90% or more (almost completely withered))
Galium spurium [6]
  Q: Galium spurium, herbicidal effect grade: 4 (Herbicidal ratio of 70% or higher and lower than 90%)
Abutilon theophrasti
  Herbicidal effect grade, M: Abutilon theophrasti: 0 (Herbicidal ratio of 5% or lower (almost no effect))

— US11000033B2, “Ketone or oxime compound, and herbicide” (NISSAN CHEMICAL CORPORATION, priority 2014, dated 2021)
